The subject of test [1] is cat fleas (Ctenocephalides felis). Nature of the test: Efficacy of various isoxazolines against cat fleas on mice (Example 3). As to conditions: Ctenocephalides felis, po, read-out: Flea inhibition relative to negative control. The class given is in vivo. As to the method: In this experiment, mice were randomly assigned to a treatment group or a negative control (untreated) group. Each group consisted of three mice. The mice in the treatment groups were orally administered 20 mg/kg bodyweight of various isoxazolines dissolved in 7% DMF-premix and 93% purified water (aqua ad injectabilia). The application volume of these treatments was 0.01 mL/g bodyweight. One hour after treatment, each mouse was sedated and generally infested (whole body) with 30 vital, adult fleas (C. felis). To achieve this, the sedated mice were placed into an infestation-jar, and the fleas were placed directly onto the fur. After approximately 30 minutes of feeding, fleas were recovered from the mice. Assessments for inhibition and mortality were conducted 1 hr, 24 hr, and 48 hr after each infestation. The efficacy was calculated as the percentage of inhibited fleas in the treatment groups relative to the negative control group.

Test [2] concerns brown dog ticks (Rhipicephalus sanguineus) nymphs. Nature of the test: Efficacy of various isoxazolines against brown dog ticks on Guinea pigs (Example 4). The format is in vivo. The following applies: po. On the procedure:
In this experiment, Guinea pigs were randomly assigned to a treatment group or a negative control (untreated) group. Each group consisted of three Guinea pigs. On Day Zero, each Guinea pig was infested with 100 vital nymphs of R. sanguineus. On Day 1, the Guinea pigs in the treatment groups were orally administered 10 mg/kg bodyweight of various isoxazolines dissolved in 7% DMF-premix and 93% purified water (aqua ad injectabilia). Engorged, detached nymphs were counted (eN) from Day 4 to […] on engorged nymphs (%) (eN control group—EeN treatment group)×100 eN control group
In addition, collected ticks were assessed for molting into the next stage.

For test [3], the system named is cat fleas (Ctenocephalides felis). Put plainly: Adult fleas fed on artificial membranes with spiked blood (Example 1). The following applies: 48 hr continuous feeding. As to the method:
Adult fleas (20-30) were fed on artificial membranes with blood spiked with Compound 10-1, Compound 11-1, or a positive control (fipronil) at a concentration of 100, 10, or 1 ppm. Flea efficacy was assessed after 48 hr of continuous feeding by comparing the number of killed and damaged fleas with the number of fed fleas. Flea efficacy was 100% for Compound 10-1, Compound 11-1, and fipronil at 100, 10, and 1 ppm.

[4] abbreviates: 1 h, mice, oral 20 mg/kg, infested 1 hr after treatment, 1 hr after infestation.
Setting [5] is: 24 h, mice, oral 20 mg/kg, infested 1 hr after treatment, 24 hr after infestation.
Where [6] appears, read: 48 h, mice, oral 20 mg/kg, infested 1 hr after treatment, 48 hr after infestation.
Setting [7] is: Guinea pigs, oral 10 mg/kg on Day 1, infested Day Zero, engorged detached nymphs counted from Day 4, read-out: Inhibition (efficacy on engorged nymphs).

Read-outs that look alike come from different tables or passages of the source.

On to `Cc1cc(C2=NOC(c3cc(Cl)cc(Cl)c3)(C(F)(F)F)C2)ccc1C(=O)Nc1ncc(C#N)cn1` (stereo not shown) [Compound 5-45], for which the pest or weed control at 20 mg/kg in test [1] (setting [4]) is 0%; in test [1] (setting [5]), 92.2%; in test [1] (setting [6]) it was 93.3%. Moreover, in test [2] (setting [7]), the pest or weed control at 10 mg/kg is 0%.

Consider `CON=CNC(=O)c1ccc(C2=NOC(c3cc(Cl)cc(Cl)c3)(C(F)(F)F)C2)cc1Cl` (stereo not shown) [Compound 5-51], for which the pest or weed control at 20 mg/kg in test [1] (setting [4]) was 0%; in test [1] (setting [5]), 97.8%; in test [1] (setting [6]) it was 97.8%. Besides, in test [2] (setting [7]), the pest or weed control at 10 mg/kg was found to be 52.1%.

For the molecule `Cc1cc(C2=NOC(c3cc(Cl)cc(Cl)c3)(C(F)(F)F)C2)ccc1C(=O)N[C@@H]1CCOC1` (stereo partly shown) [Compound 5-68], the pest or weed control at 20 mg/kg is 75.5% in test [1] (setting [4]), 91.1% in test [1] (setting [5]) and 95.6% in test [1] (setting [6]). For the same molecule, the pest or weed control at 10 mg/kg in test [2] (setting [7]) is 100%.

For `Cc1cc(C2=NOC(c3cc(Cl)cc(Cl)c3)(C(F)(F)F)C2)ccc1C(=O)NCc1cscn1` (stereo not shown) [Compound 5-66], the results for the pest or weed control at 20 mg/kg in test [1] (setting [4]), in test [1] (setting [5]) and in test [1] (setting [6]) were 77.8%, 100% and 100%, respectively. Moreover, the pest or weed control at 10 mg/kg in test [2] (setting [7]) amounted to 100%.

For the molecule `COC(=O)N(C(=O)c1ccc(C2=NOC(c3cc(Cl)cc(Cl)c3)(C(F)(F)F)C2)cc1C)N(C)c1ccccc1` (stereo not shown) [Compound 5-47], the figures for the pest or weed control at 20 mg/kg in test [1] (setting [4]), in test [1] (setting [5]) and in test [1] (setting [6]) were 0%, 95.6% and 96.7%, respectively. For the same molecule, the pest or weed control at 10 mg/kg in test [2] (setting [7]) amounted to 58.5%.

With `COCN(C(=O)c1ccc(C2=NOC(c3cc(Cl)cc(Cl)c3)(C(F)(F)F)C2)cc1C)c1ncc(C#N)cn1` (stereo not shown) [Compound 5-46], the results for the pest or weed control at 20 mg/kg in test [1] (setting [4]), in test [1] (setting [5]) and in test [1] (setting [6]) were 0%, 85.6% and 86.7%, respectively. Also, in test [2] (setting [7]), the pest or weed control at 10 mg/kg worked out at 26.4%.

With `CO/N=C\NC(=O)c1ccc(C2=NOC(c3cc(Cl)cc(Cl)c3)(C(F)(F)F)C2)cc1I` (stereo not shown) [Compound 5-62], the pest or weed control at 20 mg/kg in test [1] (setting [4]) worked out at 10%; in test [1] (setting [5]), 81.1%; in test [1] (setting [6]), 81.1%. In addition, the pest or weed control at 10 mg/kg in test [2] (setting [7]) amounted to 88.5%.

For `CCOCN(C(=O)OC)C(=O)c1ccc(C2=NOC(c3cc(Cl)cc(Cl)c3)(C(F)(F)F)C2)cc1C` (stereo not shown) [Compound 5-65], the pest or weed control at 20 mg/kg amounted to 58.8% in test [1] (setting [4]), 92.2% in test [1] (setting [5]) and 93.3% in test [1] (setting [6]). In addition, the pest or weed control at 10 mg/kg in test [2] (setting [7]) came out at 79.2%.

On to `COCN(C(=O)OC)C(=O)c1ccc(C2=NOC(c3cc(Cl)cc(Cl)c3)(C(F)(F)F)C2)cc1C` (stereo not shown) [Compound 5-63], for which the figures for the pest or weed control at 20 mg/kg in test [1] (setting [4]), in test [1] (setting [5]) and in test [1] (setting [6]) were 30%, 95.6% and 98.9%, respectively. In addition, in test [2] (setting [7]), the pest or weed control at 10 mg/kg stood at 85.3%.

`CCOCN(C(=O)OC)C(=O)c1ccc(C2=NOC(c3cc(Cl)cc(Cl)c3)(C(F)(F)F)C2)cc1I` (stereo not shown) [Compound 5-56]: the results for the pest or weed control at 20 mg/kg in test [1] (setting [4]), in test [1] (setting [5]) and in test [1] (setting [6]) were 0%, 87.8% and 88.9%, respectively. Besides, the pest or weed control at 10 mg/kg in test [2] (setting [7]) came to 76%.

`CO/N=C\NC(=O)c1ccc(C2=NOC(c3cc(Cl)cc(Cl)c3)(C(F)(F)F)C2)cc1C` (stereo not shown) [Compound 10-1, (Z)-4-[5-(3,5-dichlorophenyl)-5-trifluoromethyl-4,5-dihydroisoxazol-3-yl]-N-[(methoxyimino)methyl]-2-methylbenzamide]: the Flea efficacy in test [3] (blood spiked at 1 ppm), in test [3] (blood spiked at 10 ppm) and in test [3] (blood spiked at 100 ppm) was 100% each time.

`CO/N=C\NC(=O)c1ccc(C2=NOC(c3cc(Cl)cc(Cl)c3)(C(F)(F)F)C2)cc1C` (stereo not shown) [Compound 5-43]: the pest or weed control at 20 mg/kg in test [1] (setting [5]) and in test [1] (setting [6]) was 92.2% in each case. For the same molecule, the pest or weed control at 10 mg/kg in test [2] (setting [7]) turned out to be 0%.

With `COC(=O)NC(=O)c1ccc(C2=NOC(c3cc(Br)cc(Br)c3)(C(F)(F)F)C2)cc1C` (stereo not shown) [Compound 5-14], the pest or weed control at 20 mg/kg in test [1] (1 h) came to 4.4%; in test [1] (24 h) it was 13.3%; in test [1] (48 h), 22.2%. In test [2] (read-out: Inhibition (efficacy on engorged nymphs)), the pest or weed control at 10 mg/kg stood at 22.4%.

`CCON=CNC(=O)c1ccc(C2=NOC(c3cc(Cl)cc(Cl)c3)(C(F)(F)F)C2)cc1I` (stereo not shown) [Compound 5-44]: the values for the pest or weed control at 20 mg/kg in test [1] (setting [4]), in test [1] (setting [5]) and in test [1] (setting [6]) were 0%, 75.6% and 78.9%, respectively. Further, in test [2] (setting [7]), the pest or weed control at 10 mg/kg came out at 15.6%.

As to `Cc1cc(C2=NOC(c3cc(Cl)cc(Cl)c3)(C(F)(F)F)C2)ccc1C(=O)NN(C)c1ccccc1` (stereo not shown) [Compound 5-52], the pest or weed control at 20 mg/kg in test [1] (setting [4]) is 0%; in test [1] (setting [5]), 96.7%; in test [1] (setting [6]), 96.7%. For the same molecule, the pest or weed control at 10 mg/kg in test [2] (setting [7]) came out at 93.4%.

As to `NC(=O)NC(=O)c1ccc(C2=NOC(c3cc(Cl)cc(Cl)c3)(C(F)(F)F)C2)cc1I` (stereo not shown) [Compound 5-59], the pest or weed control at 20 mg/kg was determined as 18.8% in test [1] (setting [4]), 94.4% in test [1] (setting [5]) and 95.6% in test [1] (setting [6]). The pest or weed control at 10 mg/kg in test [2] (setting [7]) amounted to 96.3%.

With `CO/N=C\NC(=O)c1ccc(C2=NO[C@@](c3cc(Cl)cc(Cl)c3)(C(F)(F)F)C2)cc1C` [Compound 5-36], the results for the pest or weed control at 20 mg/kg in test [1] (setting [4]), in test [1] (setting [5]) and in test [1] (setting [6]) were 45.7%, 99% and 99%, respectively.

`COC(=O)N(Cc1ccccn1)C(=O)c1ccc(C2=NOC(c3cc(Cl)cc(Cl)c3)(C(F)(F)F)C2)cc1C` (stereo not shown) [Compound 5-19]: the pest or weed control at 20 mg/kg in test [1] (setting [4]) was found to be 0%; in test [1] (setting [5]) it was 90%; in test [1] (setting [6]), 94.4%.

Take `COC(=O)N(COCC(F)(F)F)C(=O)c1ccc(C2=NOC(c3cc(Cl)cc(Cl)c3)(C(F)(F)F)C2)cc1C` (stereo not shown) [Compound 5-25]: the pest or weed control at 20 mg/kg in test [1] (setting [4]) stood at 0%; in test [1] (setting [5]), 75.6%; in test [1] (setting [6]), 84.4%.

On to `O=C(CNC(=O)c1ccc(C2=NOC(c3cc(Cl)c(Cl)c(C(F)(F)F)c3)(C(F)(F)F)C2)cc1)NCC(F)(F)F` (stereo not shown) [Compound 5-39], for which the pest or weed control at 20 mg/kg amounted to 13.3% in test [1] (setting [4]), 99% in test [1] (setting [5]) and 99% in test [1] (setting [6]).

`CCNC(=O)CNC(=O)c1ccc(C2=NOC(c3cc(Cl)cc(Cl)c3)(C(F)(F)F)C2)cc1C` (stereo not shown) [Compound 14-1]: the figures for the pest or weed control at 20 mg/kg in test [1] (setting [4]), in test [1] (setting [5]) and in test [1] (setting [6]) were 97.8%, 100% and 100%, respectively.

For `CON=CNC(=O)c1ccc(C2=NOC(c3cc(Cl)c(Cl)c(Cl)c3)(C(F)(F)F)C2)cc1C` (stereo not shown) [Compound 5-33], the pest or weed control at 20 mg/kg in test [1] (setting [4]) came out at 0%; in test [1] (setting [5]), 100%; in test [1] (setting [6]), 100%.

On to `CCC(=O)N(Cc1cscn1)C(=O)c1ccc(C2=NOC(c3cc(Cl)cc(Cl)c3)(C(F)(F)F)C2)cc1C` (stereo not shown) [Compound 5-58], for which the pest or weed control at 20 mg/kg in test [1] (setting [4]) was found to be 11.1%; in test [1] (setting [5]), 100%; in test [1] (setting [6]), 100%. Further, the pest or weed control at 10 mg/kg in test [2] (setting [7]) was 100%.

On to `CC(=O)N(C(=O)c1ccc(C2=NOC(c3cc(Cl)cc(Cl)c3)(C(F)(F)F)C2)cc1C)c1ncc(Cl)cn1` (stereo not shown) [Compound 5-60], for which the pest or weed control at 20 mg/kg in test [1] (setting [4]) is 26.6%; in test [1] (setting [5]) it was 96.7%; in test [1] (setting [6]), 96.7%. Moreover, in test [2] (setting [7]), the pest or weed control at 10 mg/kg amounted to 78.9%.

(Values after patent publication US20240239759A1, “ISOXAZOLINE COMPOSITIONS AND THEIR USE AS ANTIPARASITICS” (Intervet Inc., priority 2007, published 2024).)
